Laboratory results as given in the supplement of paper PMC4862054.

Tests used:
Conditions in all cases: incubation time: 72 h
HCC1937 [1] = experiment: normalised response (% of control), CellTox Green; higher = less cell death (100 = DMSO, 0 = benzethonium chloride kill control)
Method in brief: (§1)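 Breast cancer cell lines were exposed for 72 h in 384-well plates to compound at 5 concentrations, 10-fold apart, covering a 10,000-fold range fixed for each compound. Plates were read for CellTox Green fluorescence and CellTiter-Glo luminescence and normalised to 0.1 % DMSO (100) and a positive kill control (0). Each value is the normalised signal at one concentration of the series.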

CAL-120 [2] = experiment: as above
Method in brief: as §1

CAL-85-1 [3] = experiment: as above
Method in brief: as §1

MDA-MB-468 [4] = experiment: as above
Method in brief: as §1

BT-549 [5] = experiment: as above
Method in brief: as §1

MDA-MB-453 [6] = experiment: as above
Method in brief: as §1

BT-474 [7] = experiment: as above
Method in brief: as §1

MDA-MB-231 [8] = experiment: as above
Method in brief: as §1

Hs578T [9] = experiment: as above
Method in brief: as §1

HCC1143 [10] = experiment: as above
Method in brief: as §1

HCC1599 [11] = experiment: as above
Method in brief: as §1

MFM-223 [12] = experiment: as above
Method in brief: as §1

MCF-10A [13] = experiment: as above
Method in brief: as §1

HDQ-P1 [14] = experiment: as above
Method in brief: as §1

DU-4475 [15] = experiment: as above
Method in brief: as §1

CAL-51 [16] = experiment: as above
Method in brief: as §1

MDA-MB-436 [17] = experiment: as above
Method in brief: as §1

HCC1937 [18] = experiment: normalised response (% of control), CellTiter-Glo; higher = more viable cells (100 = DMSO, 0 = benzethonium chloride kill control)
Method in brief: as §1

CAL-148 [19] = experiment: as above
Method in brief: as §1

CAL-120 [20] = experiment: as above
Method in brief: as §1

CAL-85-1 [21] = experiment: as above
Method in brief: as §1

MDA-MB-468 [22] = experiment: as above
Method in brief: as §1

BT-549 [23] = experiment: as above
Method in brief: as §1

MDA-MB-453 [24] = experiment: as above
Method in brief: as §1

BT-474 [25] = experiment: as above
Method in brief: as §1

MDA-MB-231 [26] = experiment: as above
Method in brief: as §1

Hs578T [27] = experiment: as above
Method in brief: as §1

HCC1143 [28] = experiment: as above
Method in brief: as §1

HCC1599 [29] = experiment: as above
Method in brief: as §1

SK-BR-3 = experiment: as above
Method in brief: as §1

MFM-223 [30] = experiment: as above
Method in brief: as §1

MCF-10A [31] = experiment: as above
Method in brief: as §1

HDQ-P1 [32] = experiment: as above
Method in brief: as §1

DU-4475 [33] = experiment: as above
Method in brief: as §1

CAL-51 [34] = experiment: as above
Method in brief: as §1

MDA-MB-436 [35] = experiment: as above
Method in brief: as §1

CAL-148 [36] = experiment: normalised response (% of control), CellTox Green; higher = less cell death (100 = DMSO, 0 = benzethonium chloride kill control)
Method in brief: as §1

| SMILES | normalised response (HCC1937 [1]) [%] | normalised response (CAL-120 [2]) [%] | normalised response (CAL-85-1 [3]) [%] | normalised response (MDA-MB-468 [4]) [%] | normalised response (BT-549 [5]) [%] | normalised response (MDA-MB-453 [6]) [%] | normalised response (BT-474 [7]) [%] | normalised response (MDA-MB-231 [8]) [%] | normalised response (Hs578T [9]) [%] | normalised response (HCC1143 [10]) [%] | normalised response (HCC1599 [11]) [%] | normalised response (MFM-223 [12]) [%] | normalised response (MCF-10A [13]) [%] | normalised response (HDQ-P1 [14]) [%] | normalised response (DU-4475 [15]) [%] | normalised response (CAL-51 [16]) [%] | normalised response (MDA-MB-436 [17]) [%] | normalised response (HCC1937 [18]) [%] | normalised response (CAL-148 [19]) [%] | normalised response (CAL-120 [20]) [%] | normalised response (CAL-85-1 [21]) [%] | normalised response (MDA-MB-468 [22]) [%] | normalised response (BT-549 [23]) [%] | normalised response (MDA-MB-453 [24]) [%] | normalised response (BT-474 [25]) [%] | normalised response (MDA-MB-231 [26]) [%] | normalised response (Hs578T [27]) [%] | normalised response (HCC1143 [28]) [%] | normalised response (HCC1599 [29]) [%] | normalised response (SK-BR-3) [%] | normalised response (MFM-223 [30]) [%] | normalised response (MCF-10A [31]) [%] | normalised response (HDQ-P1 [32]) [%] | normalised response (DU-4475 [33]) [%] | normalised response (CAL-51 [34]) [%] | normalised response (MDA-MB-436 [35]) [%] | normalised response (CAL-148 [36]) [%] |
| --- | --- | --- | --- | --- | --- | --- | --- | --- | --- | --- | --- | --- | --- | --- | --- | --- | --- | --- | --- | --- | --- | --- | --- | --- | --- | --- | --- | --- | --- | --- | --- | --- | --- | --- | --- | --- | --- |
| CC[C@@H]1C(=O)N(C)c2cnc(Nc3ccc(C(=O)NC4CCN(C)CC4)cc3OC)nc2N1C1CCCC1 [BI 2536] (10 nM) | 116 | 88.2 | 65.3 | 56.6 | -328 | 101 | 78.1 | 10.1 | 89.4 | 97.8 | 101 | 73 | 64.3 | 55.5 | 97.5 | 51.3 | 51.6 | 84.8 | 55.6 | 70.5 | 43.9 | 37.3 | 37 | 70.5 | 74.3 | 51.4 | 83.9 | 55.7 | 92.6 | 15.6 | 44.3 | 82.4 | 78.4 | 85.2 | 67.2 | 44.2 | – |
| C=CC(=O)Nc1cc2c(Nc3ccc(F)c(Cl)c3)ncnc2cc1OCCCN1CCOCC1 [Canertinib] (100 nM) | 108 | 97.6 | 72.3 | 136 | 75.7 | 102 | 84.4 | 107 | 109 | 94.3 | 114 | 99.3 | 106 | 51.8 | 105 | 98.2 | 107 | 84.5 | 97.5 | 99.5 | 69.1 | 76.6 | 93.9 | 91.9 | 95.3 | 103 | 97.4 | 95.7 | 85.5 | 46.4 | 99.1 | 43.9 | 70.9 | 102 | 60.2 | 96.6 | 104 |
| O=C(O)C1(C(=O)O)CCC1.[NH2-].[NH2-].[Pt+2] [Carboplatin] (100 nM) | 75.2 | 104 | 108 | 61.5 | 78.9 | 97.6 | 103 | 101 | 95.5 | 89.6 | 100 | 96.8 | 86.2 | 88.8 | 105 | 90.7 | 103 | 94.2 | 102 | 99.1 | 98 | 93.9 | 93 | 94.7 | 102 | 100 | 99.9 | 101 | 87.6 | 105 | 99.2 | 107 | 99 | 99.5 | 93.7 | 103 | 103 |
| COc1cc2c(Oc3ccc4[nH]c(C)cc4c3F)ncnc2cc1OCCCN1CCCC1 [Cediranib] (10 nM) | 119 | 95.1 | 90.9 | 138 | 104 | 107 | 96.3 | 106 | 111 | 101 | 113 | 106 | 88.3 | 108 | 97.7 | 109 | 103 | 99.5 | 108 | 103 | 107 | 104 | 113 | 107 | 103 | 105 | 110 | 102 | 88.5 | 104 | 107 | 97.9 | 100 | 104 | 92.7 | 101 | 105 |
